Data from US10265327B2, “V1A antagonists to treat phase shift sleep disorders” (Hoffmann-La Roche Inc., priority 2013, dated 2019).
Like-named read-outs stand apart in the source and are kept apart here.

Molecular target: T1, human V1a receptor (hV1a) (Homo sapiens, UniProt P37288)
T1 construct: expressed in transfected cells; host or cells: HEK cells, transient transfection; membrane preparation
Test: Radioligand binding assay (3H-AVP, SPA), human V1a
Conditions: 1 nM 3H-AVP
Procedure: The test compound was initially dissolved in DMSO at a concentration of 10 mM. Subsequent dilutions were made in assay buffer with a maximum final concentration of 0.2% DMSO.
Recombinant vasopressin V1a (human: hV1a; mouse: mV1a), V1b (human: hV1b) were independently expressed in human embryonic kidney (HEK) cells using transient transfection. The cell membranes expressing the various receptors were prepared by homogenizing (using Polytron homogenizer) the cell culture pellet in lysis buffer (50 mM HEPES, 1 mM EDTA, 10 mM MgCl2, pH 7.4 with protease inhibitors), then centrifuging the resulting suspension at 500 g for 20 min at 4° C. The supernatant was subsequently re-centrifuged at 43,000 g for 1 hour at 4° C. […] The concentration of protein was determined, and the membranes were aliquoted and stored at −80° C. until further use.
All radioligand binding assays were carried out in 96-well plates in the presence of 1 nM ^3H-AVP (vasopressin) radioligand, and 10 concentrations of test compound (ranging from 27 μM-1 nM or 2.7 μM-0.1 nM for hV1a binding). […] Filtration assays were terminated by rapid filtration under vacuum through GF/C filters, presoaked for 5 min with buffer B containing Tris 50 mM, MgCl2 5 mM, 0.1% BSA (pH 7.4), followed by 5×0.4 ml washes of ice-cold buffer B. For both SPA and filtration plates, bound ligand was determined using a Packard Topcount scintillation counter. […]

T1 sequence (P37288 whole entry): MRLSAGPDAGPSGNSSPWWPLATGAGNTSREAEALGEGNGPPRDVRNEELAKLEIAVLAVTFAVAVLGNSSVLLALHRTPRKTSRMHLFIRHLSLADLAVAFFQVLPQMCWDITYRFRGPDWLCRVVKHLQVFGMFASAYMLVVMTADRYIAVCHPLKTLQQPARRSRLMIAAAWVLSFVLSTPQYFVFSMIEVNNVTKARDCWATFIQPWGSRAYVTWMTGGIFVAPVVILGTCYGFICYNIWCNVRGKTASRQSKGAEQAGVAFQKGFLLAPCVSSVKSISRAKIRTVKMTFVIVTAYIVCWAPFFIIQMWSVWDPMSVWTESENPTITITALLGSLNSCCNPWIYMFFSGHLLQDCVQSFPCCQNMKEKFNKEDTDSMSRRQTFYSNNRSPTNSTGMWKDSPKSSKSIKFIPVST

With `CN1Cc2cc(Cl)ccc2-n2c(nnc2[C@H]2CC[C@H](Oc3ccccn3)CC2)C1` [Example 1, trans-8-chloro-5-methyl-1-(4-pyridin-2-yloxycyclohexyl)-4,6-dihydro-[1,2,4]triazolo[4,3-a][1,4]benzodiazepine] as the molecule, how does the Ki (Ki ± SEM (n), read-out: Ki V1a Human) read?
Its Ki is 700 ± 100 pM.

What about the Ki (pKi ± SEM (n), read-out: pKi V1a Human (converted)) of the same molecule?
The Ki was 776 pM.
